These results are taken from US9637453B2, “3-spirocyclic-6-hydroxamic acid tetralins as HDAC inhibitors” (Forma Therapeutics, Inc., priority 2015, dated 2017).

What is called IC50 is the concentration at which inhibition is half-maximal.

In assay [1] the target is T1, Full length human recombinant HDAC6 (Homo sapiens, UniProt Q9UBN7).
T1 construct: Full length human recombinant HDAC6 and HDAC11 proteins were expressed in baculoviral system
T1 sequence (Q9UBN7 1-1215): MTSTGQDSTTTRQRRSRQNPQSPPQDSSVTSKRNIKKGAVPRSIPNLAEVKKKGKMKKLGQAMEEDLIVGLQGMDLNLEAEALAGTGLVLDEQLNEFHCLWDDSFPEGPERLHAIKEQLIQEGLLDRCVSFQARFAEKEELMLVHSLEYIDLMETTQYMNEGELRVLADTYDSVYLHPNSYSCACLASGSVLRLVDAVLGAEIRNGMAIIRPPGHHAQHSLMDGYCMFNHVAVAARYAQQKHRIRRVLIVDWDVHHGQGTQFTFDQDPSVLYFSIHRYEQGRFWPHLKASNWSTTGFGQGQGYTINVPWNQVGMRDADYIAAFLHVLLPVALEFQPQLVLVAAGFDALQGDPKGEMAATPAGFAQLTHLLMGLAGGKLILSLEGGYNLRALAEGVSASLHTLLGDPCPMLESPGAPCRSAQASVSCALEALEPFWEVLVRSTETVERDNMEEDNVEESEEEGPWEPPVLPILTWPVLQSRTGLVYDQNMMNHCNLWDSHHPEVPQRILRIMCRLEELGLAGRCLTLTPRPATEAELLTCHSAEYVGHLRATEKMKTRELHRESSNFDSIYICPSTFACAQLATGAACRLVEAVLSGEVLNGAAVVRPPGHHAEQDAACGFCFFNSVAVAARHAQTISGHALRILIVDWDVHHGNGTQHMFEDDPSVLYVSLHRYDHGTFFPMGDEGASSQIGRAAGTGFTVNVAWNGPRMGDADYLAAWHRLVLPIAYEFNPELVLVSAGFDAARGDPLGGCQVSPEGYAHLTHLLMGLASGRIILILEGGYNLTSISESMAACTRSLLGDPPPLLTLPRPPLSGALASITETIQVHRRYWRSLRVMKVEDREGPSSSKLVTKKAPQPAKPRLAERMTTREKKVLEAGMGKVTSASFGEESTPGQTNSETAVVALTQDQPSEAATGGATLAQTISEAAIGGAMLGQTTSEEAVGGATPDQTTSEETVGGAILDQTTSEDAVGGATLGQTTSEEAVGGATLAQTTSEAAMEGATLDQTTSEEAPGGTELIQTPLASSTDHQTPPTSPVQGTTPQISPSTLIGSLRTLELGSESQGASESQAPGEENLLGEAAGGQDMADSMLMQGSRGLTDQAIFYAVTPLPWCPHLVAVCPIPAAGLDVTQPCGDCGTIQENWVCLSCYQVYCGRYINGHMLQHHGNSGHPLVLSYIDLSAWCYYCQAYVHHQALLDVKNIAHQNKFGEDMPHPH
As to the kind of experiment: In vitro histone deacetylase assay, enzymatic HDAC6 (electrophoretic mobility shift assay). Type of assay: biochemical. Conditions: 1 nM HDAC6; 2 μM peptide substrate FAM-RHKK(Ac)—NH2; 25° C.; 12 concentrations; read-out: HDAC6 Activity Range (IC50). The procedure: (§1) The enzymatic HDAC6 and HDAC11 assays were performed using electrophoretic mobility shift assay. Full length human recombinant HDAC6 and HDAC11 proteins were expressed in baculoviral system and purified by affinity chromatography. The enzymatic reactions were assembled in 384 well plates in a total volume of 25 μL in a reaction buffer composing: 100 mM HEPES, pH 7.5, 25 mM KCl, 0.1% bovine serum albumin, 0.01% Triton X-100, 1% DMSO (from compounds) 2 μM of the fluorescently labeled peptide substrate and enzyme. The enzymes were added at a final concentration of 1 nM for HDAC6, and 10 nM for HDAC11. The peptide substrate FAM-RHKK(Ac)—NH2 was used for HDAC6, and FAM-RHKK(tri-fluor-Ac)—NH2 for HDAC11. The compounds were tested at 12 concentrations spaced by 3× dilution intervals. Negative control samples (0%-inhibition in the absence of inhibitor) and positive control samples (100%-inhibition) were assembled in replicates of four in each assay plate. The reactions were incubated at 25° C. and quenched by the addition of 45 μL of termination buffer (100 mM HEPES, pH 7.5, 0.01% Triton X-100, 0.05% SDS).
(§2) The terminated assay plates were analyzed on LabChip® 3000 microfluidic electrophoresis instrument (Perkin Elmer/Caliper Life Sciences). The fluorescence intensity of the electrophoretically separated de-acetylated product and substrate peptide was measured. Activity in each sample was determined as the product to sum ratio (PSR): P/(S+P), where P is the peak height of the product peptide and S is the peak height of the substrate peptide. Percent inhibition (Pinh) is determined using following equation:
(§3) Pinh=(PSR0%−PSRinh)/(PSR0%−PSR100%)*100, where PSRinh is the product sum ratio in the presence of inhibitor, PSR0% is the average product sum ration in the absence of inhibitor and PSR100% is the average product sum ratio in 100%-inhibition control samples. The IC50 values of inhibitors were determined by fitting the %-inhibition curves with 4 parameter dose-response model using XLfit 4 software.
(§4) As set forth in Table-26 and Table-27, below, IC5o values are defined as follows: IC50≦0.1 μM (+++); IC50>0.1 μM and ≦0.5 μM (++); IC50>0.5 μM (+).

For assay [2], the target named is T2, Full length human recombinant HDAC11 (Homo sapiens, UniProt Q96DB2).
T2 construct: Full length human recombinant HDAC6 and HDAC11 proteins were expressed in baculoviral system
T2 sequence (Q96DB2 1-347): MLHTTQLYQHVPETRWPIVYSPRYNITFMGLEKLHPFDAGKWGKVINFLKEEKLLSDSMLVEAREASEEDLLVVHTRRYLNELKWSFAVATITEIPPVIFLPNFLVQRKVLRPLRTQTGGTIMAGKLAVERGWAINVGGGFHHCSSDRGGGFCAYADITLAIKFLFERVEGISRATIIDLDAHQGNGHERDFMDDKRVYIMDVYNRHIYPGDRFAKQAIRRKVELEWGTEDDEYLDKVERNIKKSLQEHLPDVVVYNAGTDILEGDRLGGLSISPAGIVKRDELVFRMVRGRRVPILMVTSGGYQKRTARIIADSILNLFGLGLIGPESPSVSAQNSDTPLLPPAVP
As to the kind of experiment: In vitro histone deacetylase assay, enzymatic HDAC11 (electrophoretic mobility shift assay). Conditions: 10 nM HDAC11; 2 μM peptide substrate FAM-RHKK(tri-fluor-Ac)—NH2; 25° C.; 12 concentrations; read-out: HDAC11 Activity Range (IC50). Type of assay: biochemical. The procedure:
as §1, §2, §3, §4
Background: Mobility shift assays separate free from complexed probe on a gel.

As for `O=C(NO)c1ccc2c(c1)C[C@@]1(CC2)CCN(c2ccccn2)C1=O` [Compound I-44, (S)—N-hydroxy-2′-oxo-1′-(pyridin-2-yl)-3,4-dihydro-1H-spiro[naphthalene-2,3′-pyrrolidine]-7-carboxamide], the IC50 in assay [1] was no more than 100 nM; in assay [2], greater than 500 nM.

With `O=C(NO)c1ccc2c(c1)C[C@@]1(CC2)CCN(CC(=O)N2CCOCC2)C1=O` [Compound I-64, (S)—N-hydroxy-1′-(2-morpholino-2-oxoethyl)-2′-oxo-3,4-dihydro-1H-spiro[naphthalene-2,3′-pyrrolidine]-7-carboxamide], the IC50 is no more than 100 nM in assay [1] and greater than 500 nM in assay [2].

Take `O=C(NO)c1ccc2c(c1)C[C@@]1(CC2)CCN(Cc2ccccc2F)C1=O` [Compound I-76, (S)-1′-(2-fluorobenzyl)-N-hydroxy-2′-oxo-3,4-dihydro-1H-spiro[naphthalene-2,3′-pyrrolidine]-7-carboxamide]: the IC50 in assay [1] is no more than 100 nM; in assay [2] it was greater than 500 nM.

`COc1ccc(C(=O)N2CCC3(CCc4ccc(C(=O)NO)cc4C3)C2)cc1` (stereo not shown) [Compound I-1, N-hydroxy-1′-(4-methoxybenzoyl)-3,4-dihydro-1H-spiro[naphthalene-2,3′-pyrrolidine]-7-carboxamide]: the IC50 is no more than 100 nM in assay [1] and greater than 500 nM in assay [2].

Regarding `O=C(NO)c1ccc2c(c1)CC1(CC2)CCN(Cc2ccc(Cl)c(C(F)(F)F)c2)C1=O` (stereo not shown) [Compound I-27, 1′-(4-chloro-3-(trifluoromethyl)benzyl)-N-hydroxy-2′-oxo-3,4-dihydro-1H-spiro[naphthalene-2,3′-pyrrolidine]-7-carboxamide], the IC50 in assay [1] and in assay [2] was no more than 100 nM in each case.

As to `Cc1ccccc1CN1CC[C@]2(CCc3ccc(C(=O)NO)cc3C2)C1=O` [Compound I-87, (R)—N-hydroxy-1′-(2-methylbenzyl)-2′-oxo-3,4-dihydro-1H-spiro[naphthalene-2,3′-pyrrolidine]-7-carboxamide], the half-maximal inhibitory concentration (IC50) in assay [1] and in assay [2] was no more than 100 nM each time.

For the compound `O=C(NO)c1ccc2c(c1)C[C@@]1(CC2)CCN(C/C=C/c2ccccc2)C1=O` [Compound I-58, (S)-1′-cinnamyl-N-hydroxy-2′-oxo-3,4-dihydro-1H-spiro[naphthalene-2,3′-pyrrolidine]-7-carboxamide], the IC50 in assay [1] was no more than 100 nM; in assay [2], 100 to 500 nM.

As to `O=C(NO)c1ccc2c(c1)C[C@]1(CC2)CCN(Cc2ccccc2OC(F)F)C1=O` [Compound I-105, (R)-1′-(2-(difluoromethoxy)benzyl)-N-hydroxy-2′-oxo-3,4-dihydro-1H-spiro[naphthalene-2,3′-pyrrolidine]-7-carboxamide], the IC50 in assay [1] and in assay [2] was no more than 100 nM in each case.

On to `O=C(NO)c1ccc2c(c1)C[C@]1(CC2)CCN(Cc2ccccc2C(F)(F)F)C1=O` [Compound I-88, (R)—N-hydroxy-2′-oxo-1′-(2-(trifluoromethyl)benzyl)-3,4-dihydro-1H-spiro[naphthalene-2,3′-pyrrolidine]-7-carboxamide], for which the half-inhibitory concentration (IC50) in assay [1] and in assay [2] was no more than 100 nM throughout.

On to `CC(C)n1c(CN2CC[C@@]3(CCc4ccc(C(=O)NO)cc4C3)C2=O)nc2ccccc21` [Compound I-66, (S)—N-hydroxy-1′-((1-isopropyl-1H-benzo[d]imidazol-2-yl)methyl)-2′-oxo-3,4-dihydro-1H-spiro[naphthalene-2,3′-pyrrolidine]-7-carboxamide], for which the IC50 in assay [1] is no more than 100 nM; in assay [2], greater than 500 nM.

`O=C(NO)c1ccc2c(c1)C[C@@]1(CC2)CCN(Cc2ccc3ccccc3c2)C1=O` [Compound I-77, (S)—N-hydroxy-1′-(naphthalen-2-ylmethyl)-2′-oxo-3,4-dihydro-1H-spiro[naphthalene-2,3′-pyrrolidine]-7-carboxamide]: the IC50 in assay [1] is no more than 100 nM; in assay [2], 100 to 500 nM.

Regarding `O=C(NO)c1ccc2c(c1)C[C@@]1(CC2)CCN(Cc2cccc(Cl)c2)C1=O` [Compound I-74, (S)-1′-(3-chlorobenzyl)-N-hydroxy-2′-oxo-3,4-dihydro-1H-spiro[naphthalene-2,3′-pyrrolidine]-7-carboxamide], the IC50 was no more than 100 nM in assay [1] and greater than 500 nM in assay [2].

As to `CC#CCN1CC[C@@]2(CCc3ccc(C(=O)NO)cc3C2)C1=O` [Compound I-55, (S)-1′-(but-2-yn-1-yl)-N-hydroxy-2′-oxo-3,4-dihydro-1H-spiro[naphthalene-2,3′-pyrrolidine]-7-carboxamide], the IC50 in assay [1] was no more than 100 nM; in assay [2] it was greater than 500 nM.

In the case of `O=C(NO)c1ccc2c(c1)CC1(CC2)CCN(c2ccncc2)C1=O` (stereo not shown) [Compound I-30, N-hydroxy-2′-oxo-1′-(pyridin-4-yl)-3,4-dihydro-1H-spiro[naphthalene-2,3′-pyrrolidine]-7-carboxamide], the 50% inhibitory concentration (IC50) is no more than 100 nM in assay [1] and greater than 500 nM in assay [2].

Take `CN1CC[C@@]2(CCc3ccc(C(=O)NO)cc3C2)C1` [Compound I-18, (S)—N-hydroxy-1′-methyl-3,4-dihydro-1H-spiro[naphthalene-2,3′-pyrrolidine]-7-carboxamide]: the IC50 in assay [1] is 100 to 500 nM; in assay [2], greater than 500 nM.

Regarding `O=C(NO)c1ccc2c(c1)C[C@@]1(CC2)CC(=O)N(CC(F)(F)F)C1` [Compound I-144, (S)—N-hydroxy-5′-oxo-1′-(2,2,2-trifluoroethyl)-3,4-dihydro-1H-spiro[naphthalene-2,3′-pyrrolidine]-7-carboxamide], the IC50 is no more than 100 nM in assay [1] and greater than 500 nM in assay [2].

As for `Cc1ccc(CN2CC[C@]3(CCc4ccc(C(=O)NO)cc4C3)C2=O)cc1` [Compound I-123, (R)—N-hydroxy-1′-(4-methylbenzyl)-2′-oxo-3,4-dihydro-1H-spiro[naphthalene-2,3′-pyrrolidine]-7-carboxamide], the IC50 in assay [1] is no more than 100 nM; in assay [2] it was greater than 500 nM.
